Laboratory results reported in patent US20230391871A1, “MONOAMINE OXIDASE BLOCKADE THERAPY FOR TREATING CANCER THROUGH REGULATING TUMOR ASSOCIATED MACROPHAGES (TAMS)” (THE REGENTS OF THE UNIVERSITY OF CALIFORNIA, priority 2020, published 2023).

Experiments:
[1] = tested on: human monocyte-derived macrophages (MDMs); conditions: phenelzine 20 μM, IL-4/IL-13 for 2 days
Method: (§1) FIG. 6: MAO-A blockade for cancer immunotherapy-human TAM and clinical data correlation studies. a, Studying the MAOA gene expression in human M1- and M2-like macrophages. A transcriptome data set (GSE35449) was analyzed using the prioritization function of a Tumour Immune Dysfunction and Exclusion (TIDE) computational method. Heatmaps are presented, showing the M2-like/M1-like mRNA fold change of MAOA gene as well as a selected group of immunosuppressive, immunostimulatory, and immune checkpoints signature genes. b-d, Studying the MAO-A expression in in vitro differentiated and IL-4/IL-13-polarized human monocyte-derived macrophages (MDMs: n=4). MDMs were generated by culturing healthy donor peripheral blood monocytes over 6 days, followed by stimulation with IL-4 and IL-13 for another 2 days. NC, no cytokine stimulation. (b,c) QPCR analyses of MAOA mRNA expression in MDMs over the 6-day MDM differentiation culture (b) and post the IL-4/IL-13-induced polarization (c). (d) Western blot analyses of MAO-A protein expression in IL-4/IL-13-polarized MDMs. e-g, Studying the in vitro polarization of human MDMs (n=3). MDMs were stimulated with IL-4/IL-13 for 2 days, in the presence or absence of phenelzine (Phe, 20 μM) treatment. NC, no cytokine stimulation: NT, no phenelzine treatment. (e) FACS analyses of CD206 expression on MDMs. (f,g) QPCR analyses ALOX15 (f) and (CD200R1 (g) mRNA expression in MDMs. h-j, Studying the in vivo polarization of human macrophages in a human Tumour-TAM Co-Inoculation xenograft mouse model (n=4). (h) Experimental design. FACS-sorted healthy donor peripheral blood monocytes were mixed with human A375 melanoma cells and s.c. injected into NSG mice to form solid tumours, with or without phenelzine treatment (Phe or NT). (i,j) FACS analyses of CD206 (i) and CD273 (j) expression on TAMs (gated as hCD45^+hCD11b^+hCD14^+ cells of total TIIs) isolated from experimental mice at day 10. k-m, Studying the in vitro efficacy of phenelzine in reprogramming human TAMs and enhancing human T cell antitumour reactivity (n=6). (k) Schematics showing an in vitro 3D human tumour/TAM/T cell organoid culture. A375-A2-ESO, human A375 melanoma cell line engineered to express an NY-ESO-1 tumour antigen as well as its matching HLA-A2 molecule: ESO-T, human peripheral blood CD8 T cells engineered to express an NY-ESO-1-specific TCR: Polarized TAM, human MDMs polarized in vitro with IL-4/IL-13 in the presence or absence of phenelzine treatment (denoted as TAM Phe or TAM NT, respectively). Cells were mixed and cultured as organoids for two days before analysis. (l,m) FACS quantification of live tumour cells (gated as hCD45^− cells) and ESO-T cells (gated as hCD45^+hCD8^+ESO-TCR^+ cells). n, QPCR analyses of MAOA mRNA expression in human TAMs isolated from ovarian cancer patient tumour samples (n=4). Monocytes isolated from random healthy donor peripheral blood were included as controls (n=10). Mo, monocyte. o-r, Clinical data correlation studies. The correlation function of a TIDE computational method was utilized. The association between the intratumoural MAOA gene expression levels and overall survival (OS) of cancer patients was computed through the two-sided Wald test in the Cox-PH regression. For each patient cohort, tumour samples were divided into the MAOA-high (samples with MAOA expression one standard deviation above the average) and MAOA-low (remaining samples) groups, followed by analysing the OS of each group. TIDE analyses of an ovarian cancer patient cohort (GSE26712, n=182: o), a lymphoma patient cohort (GSE10846, n=388: p), a breast cancers patient cohort (GSE9893, n=148: q), and a melanoma patient cohort with anti-PD-1 therapy (PRJEB23709, n=41: r). Representative of 1 (n), 2 (b-d, h-j) and 3 (e-g, k-m) experiments. All data are presented as the mean±SEM. ns, not significant, *P<0.05, **P<0.01, and ***P<0.001, by 1-way ANOVA (l, m), 2-way ANOVA (e-g), or by Student's t test (i, j, n).

[2] = tested on: A375-A2-ESO tumour cells / ESO-T cells / polarized MDMs
Method: as §1

human TAMs = conditions: A375 + human monocytes s.c. in NSG mice; phenelzine 30 mg/kg/day i.p.; day 10
Method: as §1

[3] = ESO-T cells co-cultured with phenelzine-treated vs non-phenelzine-treated MDMs

## NNCCc1ccccc1 [phenelzine]
[1]
  ALOX15 mRNA expression in MDMs (QPCR): decreased expression
  CD200R1 mRNA expression in MDMs (QPCR): decreased expression
  CD206 expression on MDMs (FACS): decreased expression
  CD273 expression on MDMs (FACS): decreased expression
  IL-4/IL-13-induced immunosuppressive polarization of MDMs: significantly inhibited
[2]; [3]
  CD25 expression on ESO-T cells: increased
  CD62L expression on ESO-T cells: decreased
  ESO-T cell number: increased
[2]; phenelzine treatment during MDM polarization, organoid cultured 2 days
  immunosuppressive effect of IL-4/IL-13-polarized MDMs on ESO-T cell-mediated killing of A375-A2-ESO tumour cells: largely alleviated
Human TAMs
  CD206 expression on human TAMs (FACS): decreased expression
  CD273 expression on human TAMs (FACS): decreased expression
  immunosuppressive polarization of human TAMs in vivo: effectively suppressed
